These results are taken from publication PMC6337627 (Molecules, 2019).

Where “and” joins values, the source holds several entries; their conditions need not be identical. Equal entries are not always repeated. Starred links: 1 amine or outer side, 2 acyl side, 3 side chain; linkers in the order of their positions; H or OH if unused. Non-standard residues stand in square brackets, D forms with d. Residues, ends and D or L forms follow the SMILES beside them. ξ: configuration not given here. Suc = O=C(CCC(=O)[*:2])[*:1]; Nphe = O=C(O)CNCc1ccccc1; ξF = NC(Cc1ccccc1)C(=O)O; Ava = NCCCCC(=O)O; GABA = NCCCC(=O)O; βAla = NCCC(=O)O

Experiment [1] deals with acetylcholinesterase (AChE) (Electrophorus electricus, UniProt O42275). Nature of the experiment: biochemical. The conditions noted are these: for IC50: AChE from Electrophorus electricus, substrate acetylthiocholine, 30 min pre-incubation, mean ± SEM of triplicate independent experiments; for Selectivity: AChE versus BuChE (values fit IC50 BuChE / IC50 AChE).
Experiment [2] has as its target T1, butyrylcholinesterase (BuChE) (Equus caballus, UniProt P81908).
T1 construct: from Electrophorus electricus and equine serum; from tissue; host or cells: equine serum
The experiment can be described thus: biochemical. Particulars: BuChE from equine serum, substrate butyrylthiocholine, 30 min pre-incubation, mean ± SEM of triplicate independent experiments.

For the next experiment, the target named is AChE (Electrophorus electricus, UniProt O42275). The experiment can be described thus: Kinetic study of AChE inhibition (Michaelis-Menten, Lineweaver-Burk). It is filed as biochemical. Particulars: Lineweaver-Burk plots, variation in Km and Vmax. The procedure: For this purpose, the rate of enzyme activity was measured at eight different concentrations of substrate ATC.
The assays were carried out in a total volume of 200 μL per well containing AChE from Electrophorus electricus (0.20 unit/mL) in PBS, the synthesized compound in DMSO, PBS at IC50, 2× IC50 concentration, and substrate solution. The general procedure was as follows: AChE and the synthesized compounds 7a to IC50 and twice concentrations in PBS were mixed and incubated at rt for 30 min. After incubation, substrate from 3.8 × 10^−3–0.48 mM was added into the mixture. The reaction was recorded for 10 min measuring the absorbance at 405 nm using a Microtiter plate reader (Multiskan EX, Thermo). Data were plotted using GraphPad Prism v4.03 software (GraphPad Software Inc., San Diego, CA, USA) to obtain the Michaelis–Menten constant (Km) and maximal velocity (Vmax) values. Km values were expressed in μM and Vmax as mol/min/mg protein and correspond to the mean ± SD of three independent assays in triplicate.
Figure 1 The Lineweaver–Burk plot of AChE (0.02 U) with an acetylthiocholine substrate in the absence and presence of inhibitor 7a.

T1 sequence (P81908 whole entry): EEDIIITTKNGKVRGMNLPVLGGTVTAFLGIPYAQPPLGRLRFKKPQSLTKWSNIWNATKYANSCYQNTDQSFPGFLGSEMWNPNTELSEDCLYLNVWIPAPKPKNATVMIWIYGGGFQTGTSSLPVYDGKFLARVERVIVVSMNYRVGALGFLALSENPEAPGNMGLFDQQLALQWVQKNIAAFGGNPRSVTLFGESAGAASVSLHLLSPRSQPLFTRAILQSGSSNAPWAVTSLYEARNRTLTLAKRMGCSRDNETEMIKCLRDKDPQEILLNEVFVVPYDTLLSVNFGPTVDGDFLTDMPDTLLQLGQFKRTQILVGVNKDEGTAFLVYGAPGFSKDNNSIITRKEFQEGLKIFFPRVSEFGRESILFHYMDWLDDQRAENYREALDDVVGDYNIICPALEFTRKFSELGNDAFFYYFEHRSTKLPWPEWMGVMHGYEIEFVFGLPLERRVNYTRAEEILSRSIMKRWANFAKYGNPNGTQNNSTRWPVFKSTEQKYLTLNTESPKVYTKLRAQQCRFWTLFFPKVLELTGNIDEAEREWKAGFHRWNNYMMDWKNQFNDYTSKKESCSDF
Sequence of acetylcholinesterase (AChE) (O42275 24-633): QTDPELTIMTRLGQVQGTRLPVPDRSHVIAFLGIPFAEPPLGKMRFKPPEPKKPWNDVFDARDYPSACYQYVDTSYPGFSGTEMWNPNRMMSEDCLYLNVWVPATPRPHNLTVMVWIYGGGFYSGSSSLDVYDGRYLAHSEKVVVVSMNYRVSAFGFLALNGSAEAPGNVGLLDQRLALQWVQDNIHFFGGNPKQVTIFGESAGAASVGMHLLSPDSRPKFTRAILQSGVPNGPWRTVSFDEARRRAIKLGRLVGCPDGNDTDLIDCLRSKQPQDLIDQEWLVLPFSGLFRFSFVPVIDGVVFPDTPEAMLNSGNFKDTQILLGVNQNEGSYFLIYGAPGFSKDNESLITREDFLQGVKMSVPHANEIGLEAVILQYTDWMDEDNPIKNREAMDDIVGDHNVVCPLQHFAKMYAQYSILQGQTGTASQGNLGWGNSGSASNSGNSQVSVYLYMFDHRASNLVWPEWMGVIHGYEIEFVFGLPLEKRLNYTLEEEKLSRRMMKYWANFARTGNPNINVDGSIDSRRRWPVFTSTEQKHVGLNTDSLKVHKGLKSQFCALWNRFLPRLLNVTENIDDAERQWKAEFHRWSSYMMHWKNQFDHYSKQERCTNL
Sequence of AChE (O42275 24-633): as above

Regarding `O=C(O)CCCN(CC(=O)NC(Cc1ccccc1)C(=O)O)C(=O)c1ccccc1` (stereo not shown) [6d], in experiment [1], the IC50 (as a rule, the point on the concentration scale where inhibition reaches its midpoint) was 10.6 ± 1.5 µM and the Selectivity is on record as 28.36. This compound also returned an IC50 in experiment [2] of 302 ± 5.8 µM.
As to `O=C(O)CCC(=O)N(CC(=O)NC(Cc1ccccc1)C(=O)O)Cc1ccccc1` (stereo not shown) [6e, 2,6-Dibenzyl-4,7-dioxo-3,6-diazadecanedioic acid] (Suc-[Nphe]-[ξF]-OH), the half-maximal inhibitory concentration (IC50) in experiment [1] was 305 ± 5.7 µM; in experiment [2], 135 µM and 136 µM. The Selectivity in experiment [1] was 0.45.
As to `NCCCC(=O)N(CC(=O)NC(Cc1ccccc1)C(=O)O)Cc1ccccc1` (stereo not shown) [7a, 10-Amino-2,6-dibenzyl-4,7-dioxo-3,6-diazadecanoic acid] (H-[GABA]-[Nphe]-[ξF]-OH), in experiment [1], the IC50 turned out to be 3.67 ± 0.8 µM and the Selectivity came out at 66.44. Besides, on AChE, the “kinetic mode of AChE inhibition” value is reported as “mixed-type inhibition”. In experiment [2], this compound displayed an IC50 of 244 ± 4.6 µM.
For the compound `NCCC(=O)N(CC(=O)NC(Cc1ccccc1)C(=O)O)Cc1ccccc1` (stereo not shown) [7b, 9-Amino-2,6-dibenzyl-4,7-dioxo-3,6-diazanonanoic acid] (H-[βAla]-[Nphe]-[ξF]-OH), the results for the IC50 in experiment [1] and in experiment [2] were 41.3 ± 2.3 µM and 461 ± 6.2 µM, respectively. For the same compound, the Selectivity in experiment [1] was 11.17.
Taken in the same sequence, the figures for `NCCCCC(=O)N(CC(=O)NC(Cc1ccccc1)C(=O)O)Cc1ccccc1` (stereo not shown) [7c, 11-Amino-2,6-dibenzyl-4,7-dioxo-3,6-diazaundecanoic acid] (H-[Ava]-[Nphe]-[ξF]-OH) were 12.6 ± 1.6 µM, 636.7 ± 3.7 µM and 50.69.
